Data on four compounds can be found in patent publication US11377423B2, “Inhibitors of histone deacetylase” (The Broad Institute, Inc., priority 2012, dated 2022).

Data set [1] has as its system human megakaryocyte progenitors. Kind of data set: Growth of human megakaryocyte progenitors (surrogate assay for platelet depletion). It counts as cell-based. The method, then:
Compounds of the invention were evaluated for their effect on the growth of human megakaryocyte progenitors (surrogate assay for platelet depletion). Human CD34+ cells were grown in a collagen-based gel (Megacult-C, Stemcell Technologies). […] 100% indicates no difference in cell viability relative to the DMSO treated cells. […] This is the desired effect.

The target in data set [2] is T1, HDAC2 (Homo sapiens (Human), UniProt Q92769).
T1 sequence (Q92769 whole entry): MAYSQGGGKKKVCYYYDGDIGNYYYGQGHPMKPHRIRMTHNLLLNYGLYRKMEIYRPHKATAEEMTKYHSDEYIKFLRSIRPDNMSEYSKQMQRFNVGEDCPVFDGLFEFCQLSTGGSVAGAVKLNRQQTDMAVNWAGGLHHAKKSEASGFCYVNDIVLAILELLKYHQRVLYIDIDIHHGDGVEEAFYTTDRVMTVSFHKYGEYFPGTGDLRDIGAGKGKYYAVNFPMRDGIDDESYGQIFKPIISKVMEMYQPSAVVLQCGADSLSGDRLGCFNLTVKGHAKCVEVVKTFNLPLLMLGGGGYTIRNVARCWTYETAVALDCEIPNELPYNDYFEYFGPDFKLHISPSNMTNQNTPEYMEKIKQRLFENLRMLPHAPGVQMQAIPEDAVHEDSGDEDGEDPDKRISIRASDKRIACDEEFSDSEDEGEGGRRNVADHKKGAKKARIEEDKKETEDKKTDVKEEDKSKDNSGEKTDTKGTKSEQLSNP
In data set [3] the target is T2, HDAC1 (Homo sapiens (Human), UniProt Q13547). The data set is described as follows: Kinetics of the inhibition of HDAC1. As to conditions: HDAC1 residence.
T2 sequence (Q13547 whole entry): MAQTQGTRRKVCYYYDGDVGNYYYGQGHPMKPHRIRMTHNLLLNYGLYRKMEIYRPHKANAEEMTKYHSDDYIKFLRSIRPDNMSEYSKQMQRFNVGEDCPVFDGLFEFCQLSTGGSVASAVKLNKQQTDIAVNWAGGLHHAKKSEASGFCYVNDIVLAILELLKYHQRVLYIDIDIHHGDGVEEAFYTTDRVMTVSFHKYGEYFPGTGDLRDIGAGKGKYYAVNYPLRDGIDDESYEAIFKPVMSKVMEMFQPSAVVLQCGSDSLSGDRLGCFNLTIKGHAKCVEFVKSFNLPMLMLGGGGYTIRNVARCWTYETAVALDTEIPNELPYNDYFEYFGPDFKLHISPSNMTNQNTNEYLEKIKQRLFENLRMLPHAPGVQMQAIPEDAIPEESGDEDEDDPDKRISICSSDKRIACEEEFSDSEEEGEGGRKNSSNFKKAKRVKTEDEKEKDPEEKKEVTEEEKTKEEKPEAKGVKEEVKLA
Procedure: HDAC1 inactivation kinetic constant was determined by curve-fitting of the plot to a first-order rate equation.
Data set [4] has as its target T2, HDAC1. The data set is described as follows: Caliper HDAC enzymatic endpoint assay, HDAC1. The format is biochemical. Conditions: read-out: HDAC1 IC50 3 h Prein; Table 2, 3 h preincubation.
Procedure: (§1) Substrate A was prepared as 2 mM in DMSO. Its final concentration in the assay for HDACs 1, 2, 3, 6 is 2 μM.
(§2) Below is the HDAC and Substrate concentration used in this assay.
The target of data set [5] is T1, HDAC2. Kind of data set: Caliper HDAC enzymatic endpoint assay, HDAC2. The format is biochemical. As to conditions: read-out: HDAC2 IC50 3 h Prein; Table 2, 3 h preincubation.
Procedure: as §1, §2
Data set [6] addresses T3, HDAC3 (Homo sapiens (Human), UniProt O15379). The data set is described as follows: Caliper HDAC enzymatic endpoint assay, HDAC3. The format is biochemical. As to conditions: read-out: HDAC3 IC50 3 h Prein; Table 2, 3 h preincubation.
Procedure: as §1, §2
The next data set concerns the target HDAC4 (Homo sapiens (Human), UniProt P56524). The data set is described as follows: Caliper HDAC enzymatic endpoint assay, HDAC4. The format is biochemical. Conditions: Table 2C; read-out: HDAC4 IC50 after 0 hr preincubation.
For the next data set, the target named is HDAC5 (Homo sapiens (Human), UniProt Q9UQL6). Kind of data set: Caliper HDAC enzymatic endpoint assay, HDAC5. It counts as biochemical. As to conditions: Table 2C; read-out: HDAC5 IC50 after 0 hr preincubation.
HDAC5, sequence (Q9UQL6 whole entry): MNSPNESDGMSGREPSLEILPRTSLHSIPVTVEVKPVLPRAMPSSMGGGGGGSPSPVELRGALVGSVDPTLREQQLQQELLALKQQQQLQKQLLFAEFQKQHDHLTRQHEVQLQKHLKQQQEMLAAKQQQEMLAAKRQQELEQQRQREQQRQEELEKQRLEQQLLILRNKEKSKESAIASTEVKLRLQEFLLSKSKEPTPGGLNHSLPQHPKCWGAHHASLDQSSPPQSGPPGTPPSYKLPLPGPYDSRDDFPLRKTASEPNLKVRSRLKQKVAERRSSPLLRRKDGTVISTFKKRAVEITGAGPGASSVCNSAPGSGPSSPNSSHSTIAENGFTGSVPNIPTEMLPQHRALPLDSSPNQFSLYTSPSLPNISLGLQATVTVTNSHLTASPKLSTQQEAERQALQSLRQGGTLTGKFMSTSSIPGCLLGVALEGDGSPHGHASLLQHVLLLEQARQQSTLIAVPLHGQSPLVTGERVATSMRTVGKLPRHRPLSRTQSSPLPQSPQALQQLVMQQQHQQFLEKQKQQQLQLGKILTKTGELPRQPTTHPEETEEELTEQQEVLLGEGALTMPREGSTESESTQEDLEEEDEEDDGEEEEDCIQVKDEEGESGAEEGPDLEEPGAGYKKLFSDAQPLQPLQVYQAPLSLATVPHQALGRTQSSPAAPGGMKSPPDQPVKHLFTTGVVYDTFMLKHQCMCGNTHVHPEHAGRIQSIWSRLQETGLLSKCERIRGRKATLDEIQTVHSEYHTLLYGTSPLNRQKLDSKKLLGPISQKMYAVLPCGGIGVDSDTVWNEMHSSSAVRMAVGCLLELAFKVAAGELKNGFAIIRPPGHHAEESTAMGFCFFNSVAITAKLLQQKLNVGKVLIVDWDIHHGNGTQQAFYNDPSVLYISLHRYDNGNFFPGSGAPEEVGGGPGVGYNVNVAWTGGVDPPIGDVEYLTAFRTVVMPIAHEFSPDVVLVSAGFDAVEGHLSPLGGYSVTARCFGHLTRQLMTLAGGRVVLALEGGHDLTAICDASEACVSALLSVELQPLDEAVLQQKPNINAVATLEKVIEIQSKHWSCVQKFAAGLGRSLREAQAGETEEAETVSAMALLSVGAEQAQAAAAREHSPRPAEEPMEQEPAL
The target of a further data set is HDAC6 (Homo sapiens (Human), UniProt Q9UBN7). The data set is described as follows: Caliper HDAC enzymatic endpoint assay, HDAC6. The format is biochemical. Conditions: Table 2C; read-out: HDAC6 IC50 after 0 hr preincubation.
The target in another data set is HDAC7 (Homo sapiens (Human), UniProt Q8WUI4). Kind of data set: Caliper HDAC enzymatic endpoint assay, HDAC7. It counts as biochemical. Conditions: Table 2C; read-out: HDAC7 IC50 after 0 hr preincubation.
Another data set has as its target HDAC8 (Homo sapiens (Human), UniProt Q9BY41). The data set is described as follows: Caliper HDAC enzymatic endpoint assay, HDAC8. The format is biochemical. As to conditions: Table 2C; read-out: HDAC8 IC50 after 0 hr preincubation.
A further data set addresses HDAC9 (Homo sapiens (Human), UniProt Q9UKV0). Kind of data set: Caliper HDAC enzymatic endpoint assay, HDAC9. The format is biochemical. As to conditions: Table 2C; read-out: HDAC9 IC50 after 0 hr preincubation.
Another data set relates to INS-1E cells. Kind of data set: Cytokine-induced beta-cell apoptosis, caspase-3 activity assay. It counts as cell-based, rat. As to conditions: IL-1β, IFN-γ, TNF-α, 48 hours, 5 μM compound. The protocol:
Compounds of the invention were evaluated for their ability to suppress cytokine-induced beta-cell apoptosis and palmitate and/or glucose-induced beta-cell apoptosis by inhibition of HDAC3. Assay protocols were as follows: Cell culture and reagents. […] Recombinant IL-1β, IFN-γ, and TNF-α were purchased from R&D Systems. Palmitate, D-glucose and fatty acids-free low endotoxin BSA were purchased from Sigma. Palmitate was solubilized in 90% ethanol, heated to 60° C. and used 1:100 dilution in media. Caspase-Glo 3/7 was from Promega and 3-(4,5-dimethylthiazol-2-yl)-2,5-diphenyltetrazolium bromide (MTT) was from Calbiochem. Antibodies for HDAC1, HDAC2, HDAC3, pJNK, JNK cleaved caspase-9 and secondary horseradish-peroxidase conjugated goat anti-mouse and anti-rabbit antibodies were from Cell Signaling. Antibody for beta-actin was from Sigma and antibody against CHOP (GADD153) from Abcam. HDAC inhibitors were purchased from Selleck Chemicals or synthesized in-house. Primers were from Integrated DNA Technologies, High Capacity cDNA RT kit and SYBR green master mix were purchased from Applied Biosystems. INS-1E cells were seeded at 5,000 cells/well using a Multidrop Combi (Thermo Labsystems) in white optical 384-well plates (Corning Life Sciences). After overnight incubation, medium was removed and 50 μL RPMI containing the treated compound, 1% FBS and either a combination of cytokines (10 ng/mL IL-1β, 50 ng/mL IFN-γ, 25 ng/mL TNF-α) or 0.5 mM sodium palmitate was added to every well. After two-day treatment, medium was removed and 20 μL Caspase-Glo 3/7 reagent was added. Luminescence was measured after a two-hour incubation using an Envision plate reader (PerkinElmer). […] The rat INS-1E cell line was simultaneously treated for 48 hours with a combination of pro-inflammatory cytokines IL-1β, IFN-γ, and TNF-α, and the indicated test compounds. […] Compound 9, a negative control, had no effect. […] FIGS. 9C and 9D show a dose-response analysis of HDAC inhibition in suppression of cytokine-induced beta-cell apoptosis. […] This could translate to a larger therapeutic window. […]

Data set [7] addresses T3, HDAC3.

What is called IC50 is the concentration that inhibits the measured activity by half.

SMILES strings stand for the structures.

T3 sequence (O15379 whole entry): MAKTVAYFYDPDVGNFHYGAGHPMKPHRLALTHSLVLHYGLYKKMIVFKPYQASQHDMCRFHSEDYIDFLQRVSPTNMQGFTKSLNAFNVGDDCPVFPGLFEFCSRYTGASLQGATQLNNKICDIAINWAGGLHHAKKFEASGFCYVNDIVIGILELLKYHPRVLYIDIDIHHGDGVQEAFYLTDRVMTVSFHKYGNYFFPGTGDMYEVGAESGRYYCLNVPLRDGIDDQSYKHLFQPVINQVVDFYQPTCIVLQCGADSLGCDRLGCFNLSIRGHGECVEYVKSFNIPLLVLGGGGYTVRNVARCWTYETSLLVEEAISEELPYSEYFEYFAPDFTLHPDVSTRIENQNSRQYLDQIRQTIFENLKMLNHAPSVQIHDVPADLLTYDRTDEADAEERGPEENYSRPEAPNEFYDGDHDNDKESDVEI
T3 sequence (Q9Y618 395-489 partner): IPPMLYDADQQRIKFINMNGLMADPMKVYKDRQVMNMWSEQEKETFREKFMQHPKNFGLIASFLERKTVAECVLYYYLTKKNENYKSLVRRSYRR
HDAC9, sequence (Q9UKV0 whole entry): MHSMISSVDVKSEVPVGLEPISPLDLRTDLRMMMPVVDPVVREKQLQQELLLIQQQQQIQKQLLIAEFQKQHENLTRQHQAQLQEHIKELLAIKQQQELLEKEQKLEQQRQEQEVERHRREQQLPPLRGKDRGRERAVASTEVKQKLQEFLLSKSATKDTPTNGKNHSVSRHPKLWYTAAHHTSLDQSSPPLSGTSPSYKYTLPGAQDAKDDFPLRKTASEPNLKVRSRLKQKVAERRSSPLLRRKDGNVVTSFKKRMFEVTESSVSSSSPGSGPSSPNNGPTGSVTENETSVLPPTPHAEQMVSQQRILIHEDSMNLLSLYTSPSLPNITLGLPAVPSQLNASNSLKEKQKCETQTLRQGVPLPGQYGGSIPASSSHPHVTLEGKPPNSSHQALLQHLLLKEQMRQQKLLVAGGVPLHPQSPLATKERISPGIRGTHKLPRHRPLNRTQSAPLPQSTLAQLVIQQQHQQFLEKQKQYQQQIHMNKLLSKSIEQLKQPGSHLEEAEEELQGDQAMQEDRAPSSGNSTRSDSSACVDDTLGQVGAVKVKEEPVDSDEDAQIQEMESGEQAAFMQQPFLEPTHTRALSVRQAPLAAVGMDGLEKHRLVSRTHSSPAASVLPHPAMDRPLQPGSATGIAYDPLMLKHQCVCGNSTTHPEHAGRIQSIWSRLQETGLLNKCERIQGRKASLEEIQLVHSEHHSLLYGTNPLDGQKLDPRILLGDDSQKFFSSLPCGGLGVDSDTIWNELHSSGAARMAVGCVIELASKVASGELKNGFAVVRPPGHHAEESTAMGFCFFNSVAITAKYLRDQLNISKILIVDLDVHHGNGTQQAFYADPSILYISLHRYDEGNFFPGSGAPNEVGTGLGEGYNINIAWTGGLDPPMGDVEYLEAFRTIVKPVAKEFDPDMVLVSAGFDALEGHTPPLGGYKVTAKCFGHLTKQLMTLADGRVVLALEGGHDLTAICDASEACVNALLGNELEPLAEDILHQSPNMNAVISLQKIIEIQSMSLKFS
HDAC4, sequence (P56524 whole entry): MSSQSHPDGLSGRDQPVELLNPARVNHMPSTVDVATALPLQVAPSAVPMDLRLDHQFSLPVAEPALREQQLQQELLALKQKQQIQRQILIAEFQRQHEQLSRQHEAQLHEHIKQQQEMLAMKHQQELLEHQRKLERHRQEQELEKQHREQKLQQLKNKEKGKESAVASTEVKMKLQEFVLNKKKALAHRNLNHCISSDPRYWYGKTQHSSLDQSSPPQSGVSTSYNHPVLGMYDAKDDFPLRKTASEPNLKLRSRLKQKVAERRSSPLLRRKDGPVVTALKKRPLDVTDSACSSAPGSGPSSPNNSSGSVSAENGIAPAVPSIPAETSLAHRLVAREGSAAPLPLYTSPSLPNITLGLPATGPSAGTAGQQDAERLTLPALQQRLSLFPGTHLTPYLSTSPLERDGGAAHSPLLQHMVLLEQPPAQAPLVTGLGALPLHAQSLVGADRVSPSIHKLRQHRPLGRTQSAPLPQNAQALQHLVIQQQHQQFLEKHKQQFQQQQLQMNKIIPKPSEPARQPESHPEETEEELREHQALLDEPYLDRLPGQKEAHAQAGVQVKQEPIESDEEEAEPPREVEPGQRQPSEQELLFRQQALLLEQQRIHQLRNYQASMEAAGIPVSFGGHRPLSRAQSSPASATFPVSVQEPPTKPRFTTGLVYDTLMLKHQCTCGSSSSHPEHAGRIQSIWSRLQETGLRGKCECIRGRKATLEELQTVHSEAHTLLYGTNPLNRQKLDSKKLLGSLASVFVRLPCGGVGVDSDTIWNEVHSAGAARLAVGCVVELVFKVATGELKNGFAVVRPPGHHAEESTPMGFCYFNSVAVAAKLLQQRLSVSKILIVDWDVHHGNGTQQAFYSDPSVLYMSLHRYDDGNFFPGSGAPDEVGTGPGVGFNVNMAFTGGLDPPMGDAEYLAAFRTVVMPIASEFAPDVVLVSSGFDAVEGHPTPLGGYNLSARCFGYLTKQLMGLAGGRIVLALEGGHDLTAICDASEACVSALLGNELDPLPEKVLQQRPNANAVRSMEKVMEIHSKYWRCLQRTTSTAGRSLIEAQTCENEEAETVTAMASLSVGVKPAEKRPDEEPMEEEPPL
Procedure for HDAC4: (§3) The Caliper HDAC Assay Buffer (acronym HAB, 1 liter) was prepared as follows:
(§4) Substrate B was prepared as 2 mM in 100% DMSO. Its final concentration in the assay for HDACs 4, 5, 7, 8, 9 is 2 μM.
(§5) LBH was used as quench inhibitor to stop the reaction at the end point.
IC50 values are in micromolar.
Procedure for HDAC5: as §3, §4, §5
IC50 values are in micromolar.
Procedure for HDAC6: as §1, §2
Procedure for HDAC7: as §3, §4, §5
IC50 values are in micromolar.
Procedure for HDAC8: as §3, §4, §5
IC50 values are in micromolar.
Procedure for HDAC9: as §3, §4, §5
IC50 values are in micromolar.

Take `CC(=O)Nc1ccc(C(=O)Nc2ccccc2N)cc1` [CI-994, 4-(Acetylamino)-N-(2-aminophenyl)benzamide, reference compound]: in data set [1] (1 μM), the “effect on megakaryocyte progenitor cell growth at 1 μM” value is given as “significant toxic effect on cell growth”. Also, the “toxicity to human megakaryocyte progenitors at higher concentrations” value in data set [1] (particularly at 10 μM and 20 μM) was “highly toxic”. The results for the T1/2 at HDAC2 [2] and at HDAC1 [3] were 3.17 h and 1.23 h, respectively.
`CC(=O)Nc1ccc(C(=O)Nc2ccc(C)cc2N)cc1` [Compound 9, 4-acetamido-N-(2-amino-4-methylphenyl)benzamide]: the IC50 on HDAC1 [4], on HDAC2 [5], on HDAC3 [6], at HDAC4, on HDAC5 and at HDAC6 was more than 33 µM in each case. For the same compound, the IC50 on HDAC7, on HDAC8 and on HDAC9 was more than 33 µM in each case. In the data set on INS-1E cells, the “suppression of cytokine-induced beta-cell apoptosis (caspase activity)” value is listed as “no effect”. Also, the “effect on growth and viability of human megakaryocyte progenitor cells” value in data set [1] (0.1, 1, 10 and 20 μM, relative to DMSO treated cells) is “no significant effect on growth and viability”.
Consider `Nc1ccccc1NC(=O)c1ccc(CNC(=O)OCc2cccnc2)cc1` [MS-275, reference compound], for which the T1/2 at HDAC2 [2] was 1.05 h; on HDAC1 [3], 1.77 h.
Take `O=C(CCCCCCC(=O)Nc1ccccc1)NO` [SAHA, N1-hydroxy-N8-phenyl-octanediamide, reference compound]: the results for the T1/2 at HDAC3 [7] and on HDAC1 [3] were less than 4 min and less than 0.067 h, respectively.
